Key:
[1] = Pharmacokinetic study (HPLC-MS of blood samples); assay type: in vivo; conditions: male C57BL/6 mice
Procedure: Pharmacokinetic study of cobalt complex 2 was performed in male C57BL/6 mice by the dosage of 40 mg/kg. The source of mouse and practice of husbandry were the same as described in the methodology section of LLC-1 Xenograft Tumor experiment. Cobalt complex 2 was diluted in the formula (PEG400: H2O: Ethanol = 6:3:1) and administered by intraperitoneal in a volume of 0.005 mL/g bodyweight. After dosing, blood samples were collected to sodium heparin anticoagulant tube at different time points (5, 15, 30 min, and then 1, 2, 4, 8, 12 and 24 hours); 4 mice were used for each time point. Approximately 200 μL of blood was collected via orbital vein from each anesthetized mouse by isoflurane. Plasma was separated by centrifugation at 3000 g for 10 minutes at 4°C. The plasma was protected and stored at −80°C until analyzed by liquid chromatography-mass spectrometry/mass spectrometry (LC-MS/MS) for quantification.
Plasma samples were thawed at room temperature and then vortexed to ensure sample solution homogeneity. Firstly, a 20 μL aliquot of each plasma sample were loaded into 1.5 mL tube, 100 μL acetonitrile was added, vortexed then centrifuged at 13000 rpm for 10 min. the supernatant was collected. The plasma cobalt complex 2 concentrations were quantified using Thermo HPLC Ultimate 3000 system. The compound in plasma samples were analyzed by using the Agilent Zorbax Eclipse Plus C-18 column with a particle size of 1.8 μm. The parameters of the gradient elution program were applied as follows: mobile phase A (0.1% formic acid in water) and mobile phase B acetonitrile: 0–5.5 min, 20% B; 5.5–7 min, 90% B; 7–10 min, 20% B. The column and autosampler temperature were maintained at 40 and 4 °C, respectively. The gas temperature was set 320 °C with flow rate (0.8 mL/min), gases were set at 10 psi for the nebulizer, capillary, 3500 V.

[2] = test system: A2780 cisplatin-resistant cancer cells; assay: MTT cytotoxicity, cisplatin-resistant A2780; assay type: cell-based; conditions: for IC50: A2780 cisplatin-resistant, MTT, 72 h; for Resistant Factor, A2780: cisplatin-resistant over cisplatin-sensitive IC50, A2780
Description: (§1) All cells were obtained from the American Type Culture Collection (Rockville, MD, USA) unless otherwise specified. Immortalized wild-type and Atg7-deficient mouse embryonic fibroblasts (MEFs) were kindly provided by Professor Masaaki Komatsu (Juntendo University, School of Medicine, Japan). Taxol-resistant types of MCF-7, HCT-8, A549 cancers cells and cisplatin-resistant SGC7901 cancer cells were purchased from KeyGEN BioTECH, China. Cisplatin-sensitive or –resistant A2780, OV2008 and C13 cancer cells were kindly provided by Prof. Benjamin Tsang (Department of Obstetrics and Gynecology and Department of Cellular and Molecular Medicine, University of Ottawa, Canada). HCT116 p53^+/+ and p53^−/− isogenic human colon cancer cells were kindly provided by Professor Bert Vogelstein (Ludwig Center at Johns Hopkins, Howard Hughes Medical Institute, USA). All media were supplemented with 10% fetal bovine serum and antibiotics penicillin (50 U/ml) and streptomycin (50 μg/ml; Invitrogen, Paisley, Scotland, UK). All cell cultures were incubated at 37°C in a 5% humidified CO2 incubator.
(§2) All tested compounds were dissolved in DMSO at a final concentration of 50 mmol/L and stored at −20°C before use. Cytotoxicity was assessed by using the 3-(4,5-dimethylthiazol-2-yl)-2, 5-diphenyltetrazolium bromide (MTT) (5.0 mg/ml) assay as previously described. Briefly, 4×10^3 cells per well were seeded in 96-well plates before drug treatments. After overnight culture, the cells were then exposed to different concentrations of selected compounds ([…]) for 72 hours. Cells without drug treatment were used as control. Subsequently, MTT (10 μL) solution was added to each well and incubated at 37°C for 4 hours followed by the addition of 100 μL solubilization buffer (10%SDS in 0.01 mol/L HCl) and overnight incubation. A570 nm was then determined in each well on the next day. The percentage of cell viability was calculated using the following formula: Cell viability (%) = Atreated/Acontrol × 100. Data were obtained from three independent experiments.

[3] = test system: MCF-7 (breast cancer) cells; assay: MTT cytotoxicity assay, MCF-7; assay type: cell-based; conditions: MCF-7, MTT, 72 h
Procedure: as §2

[4] = test system: A549 taxol-resistant cancer cells; assay: MTT cytotoxicity, taxol-resistant A549; assay type: cell-based; conditions: for IC50: A549 taxol-resistant, MTT, 72 h; for Resistant Factor, A549: IC50 of taxol-resistant cells over IC50 of taxol-sensitive cells
Description: as §1, §2

[5] = test system: H1299 (lung cancer) cells; assay: MTT cytotoxicity assay, H1299; assay type: cell-based, human; conditions: 72 h
Procedure: as §2

[6] = test system: HCT116 p53^+/+ colon cancer cells; assay: MTT cytotoxicity, HCT116 p53+/+; assay type: cell-based, human; conditions: 72 h
Description: as §1, §2

[7] = test system: Hep3B (liver cancer) cells; assay: MTT cytotoxicity assay, Hep 3B; assay type: cell-based; conditions: 72 h
Procedure: as §2

[8] = test system: A549 taxol-sensitive cancer cells; assay: MTT cytotoxicity, taxol-sensitive A549; assay type: cell-based; conditions: 72 h
Description: as §1, §2

[9] = test system: normal human LO2 hepatocytes; assay: MTT cytotoxicity assay, LO2; assay type: cell-based; conditions: 72 h
Procedure: as §2

[10] = test system: SGC-7901 cisplatin-resistant cancer cells; assay: MTT cytotoxicity, cisplatin-resistant SGC-7901; assay type: cell-based; conditions: for IC50: SGC-7901 cisplatin-resistant, MTT, 72 h; for Resistant Factor, SGC-7901: cisplatin-resistant over cisplatin-sensitive IC50, SGC-7901
Description: as §1, §2

[11] = test system: HeLa (cervical cancer) cells; assay: MTT cytotoxicity assay, HeLa; assay type: cell-based; conditions: 72 h
Procedure: as §2

[12] = test system: A549 (EGFR wild-type lung cancer) cells; assay: MTT cytotoxicity assay, A549; assay type: cell-based; conditions: 72 h
Procedure: as §2

[13] = test system: C13 (cisplatin-resistant) cells; assay: MTT cytotoxicity, C13 (cisplatin-resistant); assay type: cell-based; conditions: for IC50: C13 (cisplatin-resistant), MTT, 72 h, read-out: IC50 value, cisplatin-resistant cancer, C13; for Resistant Factor, OV2008/C13 pair: C13 (resistant) IC50 over OV2008 (sensitive) IC50
Description: as §1, §2

[14] = test system: HCT-8 taxol-resistant cancer cells; assay: MTT cytotoxicity, taxol-resistant HCT-8; assay type: cell-based; conditions: for IC50: HCT-8 taxol-resistant, MTT, 72 h; for Resistant Factor, HCT-8: IC50 of taxol-resistant cells over IC50 of taxol-sensitive cells
Description: as §1, §2

[15] = test system: LLC-1 (mouse lung cancer) cells; assay: MTT cytotoxicity assay, LLC-1; assay type: cell-based; conditions: LLC-1, MTT, 72 h
Procedure: as §2

[16] = test system: SGC-7901 cisplatin-sensitive cancer cells; assay: MTT cytotoxicity, cisplatin-sensitive SGC-7901; assay type: cell-based; conditions: 72 h
Description: as §1, §2

[17] = test system: HCT-8 taxol-sensitive cancer cells; assay: MTT cytotoxicity, taxol-sensitive HCT-8; assay type: cell-based; conditions: 72 h
Description: as §1, §2

[18] = test system: MCF-7 taxol-sensitive cancer cells; assay: MTT cytotoxicity, taxol-sensitive MCF-7; assay type: cell-based; conditions: 72 h
Description: as §1, §2

[19] = test system: H1975 (EGFR mutant lung cancer) cells; assay: MTT cytotoxicity assay, H1975; assay type: cell-based; conditions: 72 h
Procedure: as §2

[20] = test system: HepG2 (liver cancer) cells; assay: MTT cytotoxicity assay, HepG2; assay type: cell-based; conditions: 72 h
Procedure: as §2

[21] = test system: MCF-7 taxol-resistant cancer cells; assay: MTT cytotoxicity, taxol-resistant MCF-7; assay type: cell-based; conditions: for Resistant Factor, MCF-7: IC50 of taxol-resistant cells over IC50 of taxol-sensitive cells; for IC50: MCF-7 taxol-resistant, MTT, 72 h
Description: as §1, §2

[22] = test system: HCT116 p53^-/- colon cancer cells; assay: MTT cytotoxicity, HCT116 p53-/-; assay type: cell-based, human; conditions: for IC50: HCT116 p53-/-, MTT, 72 h; for Resistant Factor, HCT116 p53-/- vs p53+/+: IC50 p53-/- over IC50 p53+/+
Description: as §1, §2

[23] = test system: A2780 cisplatin-sensitive cancer cells; assay: MTT cytotoxicity, cisplatin-sensitive A2780; assay type: cell-based; conditions: 72 h
Description: as §1, §2

[24] = test system: OV2008 (cisplatin-sensitive) cells; assay: MTT cytotoxicity, OV2008 (cisplatin-sensitive); assay type: cell-based; conditions: 72 h, read-out: IC50 value, cisplatin-sensitive cancer, OV2008
Description: as §1, §2

[25] = test system: panel of cancer cells; assay: MTT cytotoxicity assay, summary over the panel of cancer cells; assay type: cell-based; conditions: range over the cancer cell lines of Table 1, MTT, 72 h; read-out: mean IC50 values ranged (over the cancer cell lines)
Procedure: as §2

Row | SMILES | IC50 [2] | Resistant Factor, A2780 [2] | IC50 [3] | IC50 [4] | Resistant Factor, A549 [4] | IC50 [5] | IC50 [6] | IC50 [7] | IC50 [8] | IC50 [9] | IC50 [10] | Resistant Factor, SGC-7901 [10] | IC50 [11] | IC50 [12] | IC50 [13] | Resistant Factor, OV2008/C13 pair [13] | IC50 [14] | Resistant Factor, HCT-8 [14] | IC50 [15] | IC50 [16] | also measured
1 | Cc1ccnc(-c2cc(C)ccn2)c1 [Me2-bpy] | – | – | – | – | – | – | – | – | – | – | – | – | – | – | – | – | – | – | – | – | species detected in blood samples by HPLC-MS ([1]; 40 mg/kg intraperitoneal of complex 2, 5 min to 24 hours): only the free ligand of Me2-bpy was detected; free ligand signal (m/z 185.1071) in samples after 2-hour time interval ([1]; 40 mg/kg intraperitoneal of complex 2, after 2 hours): very weak or no detectable signal
2 | COc1ccnc(-c2cc(OC)ccn2)c1.COc1ccnc(-c2cc(OC)ccn2)c1.COc1ccnc(-c2cc(OC)ccn2)c1.F[P-](F)(F)(F)(F)F.F[P-](F)(F)(F)(F)F.F[P-](F)(F)(F)(F)F.[Co+3] [complex 5, [Co^III(4,4’-(OMe)2-bpy)3](PF6)3] | 27 µM | 1.13 | 10.8 µM | 2.85 µM | 0.19 | 8.71 µM | 77.8 µM | 5.33 µM | 15 µM | 20.6 µM | 20.7 µM | 0.96 | 12.8 µM | 18.6 µM | 20.3 µM | 1.45 | 1.04 µM | 0.24 | 8.71 µM | 21.6 µM | IC50 [17]: 4.3 µM; IC50 [18]: 9.45 µM; IC50 [19]: 9.31 µM; IC50 [20]: 15.4 µM; Resistant Factor, MCF-7 [21]: 0.66; IC50 [21]: 6.28 µM; IC50 [22]: 41.3 µM; Resistant Factor, HCT116 p53-/- vs p53+/+ [22]: 0.53; IC50 [23]: 24 µM; IC50 [24]: 14 µM
3 | Cc1ccnc(-c2cc(C)ccn2)c1.Cc1ccnc(-c2cc(C)ccn2)c1.Cc1ccnc(-c2cc(C)ccn2)c1.F[P-](F)(F)(F)(F)F.F[P-](F)(F)(F)(F)F.[Co+2] [complex 1, [Co^II(4,4’-Me2-bpy)3](PF6)2] | 11.2 µM | 0.94 | 15.4 µM | 2.37 µM | 0.25 | 3.43 µM | 17.1 µM | 4.06 µM | 9.59 µM | 13.5 µM | 17.6 µM | 1.50 | 10.1 µM | 9.45 µM | 15.6 µM | 2.21 | 1.16 µM | 0.37 | 2.79 µM | 11.7 µM | IC50 [17]: 3.13 µM; IC50 [18]: 4.62 µM; IC50 [19]: 15.4 µM; IC50 [20]: 7.39 µM; Resistant Factor, MCF-7 [21]: 0.54; IC50 [21]: 2.51 µM; IC50 [22]: 8.89 µM; Resistant Factor, HCT116 p53-/- vs p53+/+ [22]: 0.52; IC50 [23]: 11.9 µM; IC50 [24]: 7.06 µM
4 | CCCCCCCCCc1ccnc(-c2cc(CCCCCCCCC)ccn2)c1.CCCCCCCCCc1ccnc(-c2cc(CCCCCCCCC)ccn2)c1.CCCCCCCCCc1ccnc(-c2cc(CCCCCCCCC)ccn2)c1.F[P-](F)(F)(F)(F)F.F[P-](F)(F)(F)(F)F.F[P-](F)(F)(F)(F)F.[Co+3] [complex 6, [Co^III(4,4’-(C9H19)2-bpy)3](PF6)3] | 29.1 µM | 0.96 | 37.4 µM | 2.6 µM | 0.05 | 26.7 µM | 36.5 µM | 54.1 µM | 54.3 µM | 40.2 µM | 35.9 µM | 0.99 | 21.3 µM | 82.8 µM | 92.6 µM | 1.87 | 41.1 µM | 0.73 | 10.4 µM | 36.3 µM | IC50 [25]: 10.4 to 82.8 µM; IC50 [17]: 56.4 µM; IC50 [18]: 28.5 µM; IC50 [19]: 24.2 µM; IC50 [20]: 26 µM; Resistant Factor, MCF-7 [21]: 0.39; IC50 [21]: 11.1 µM; IC50 [22]: 34.1 µM; Resistant Factor, HCT116 p53-/- vs p53+/+ [22]: 0.93; IC50 [23]: 30.2 µM; IC50 [24]: 49.4 µM

From PMC5589637, “New perspectives of cobalt tris(bipyridine) system: anti-cancer effect and its collateral sensitivity towards multidrug-resistant (MDR) cancers” (Oncotarget, 2017)
